According to patent US8003360B2, “Debaryomyces castellii phytase” (Adisseo France S.A.S., priority 2005, dated 2011):
Entries after “also recorded” stand apart in the source; their conditions may differ. Like-named read-outs stand apart in the source and are kept apart here.

Key:
[1] = tested on: Debaryomyces castellii CBS2923 phytase; experiment: Influence of the environment (additives, calcium, buffer molarity) on thermostability of the phytase; type: physicochemical
Experimental: At the end of treatment, the extract is cooled in water at +4° C. […] Three types of elements are tested: • sugars or sugar alcohol: sucrose, lactose, trehalose, arabinose, glycerol, • the absence of calcium, • the molarity of the buffer. […] At the end of treatment, the extract is cooled in water to +4° C. […] Materials and Methods).

[2] = target: T1, Debaryomyces castellii CBS 2923 phytase, native (wild type), SEQ ID No. 2 (Schwanniomyces capriottii, UniProt A2TBB4); experiment: Influence of effectors on the phytase activity; type: biochemical; conditions: for effect on the phytase activity (in words): Table 3
Experimental: (§1) The amount of phosphate released is measured by colorimetery. The visualizing solution, prepared extemporaneously, contains iron sulphate (380 mM, 1 volume) and ammonium heptamolybdate (12 mM, 4 volumes). The absorbance at 700 nm is measured after 30 minutes of visualization at ambient temperature (1 volume of reaction medium+1 volume of visualizing solution), using a UV/visible spectrophotometer (Beckman DU 530).

D. castellii phytase [3] = experiment: Influence of effectors on phytase activity; type: biochemical, Debaryomyces castellii; conditions: for inhibition of phytase activity: concentrations see Table 3
D. castellii phytase [4] = experiment: Kinetic constants of the native phytase on substrates; type: biochemical, Debaryomyces castellii; conditions: +37° C., pH 4 with sodium phytate, pH 5.5 with p-NPP
Experimental: (§2) The effect of pH on the phytase activity is determined using the following buffer solutions: 200 mM glycine-HCl, pH 2-3.5; 200 mM sodium acetate-acetic acid, pH 3.5-7; and 200 mM tris-HCl, pH 7-9. The reactions are carried out at +37° C. using the phytate as substrate. The optimum temperature is determined by varying the temperature from +30° C. to +80° C. […] After the heat treatment, the mixture is cooled in ice and the phytase activity is determined using the phytate as substrate.
(§3) The kinetic constants are determined on 2 substrates.

[5] = target: recombinant Debaryomyces castellii CBS 2923 phytase (recPhyt, expressed in Pichia pastoris), SEQ ID No. 2 (Schwanniomyces capriottii, UniProt A2TBB4); conditions: phytate compared with p-NPP
D. castellii phytase [6] = experiment: Hydrolysis of various inositol phosphates (Table 6B); type: biochemical, Debaryomyces castellii; conditions: hydrolysis 30 minutes at 37° C., pH 4
D. castellii phytase [7] = experiment: Substrate specificity, phosphate release kinetics (Table 6A); type: biochemical, Debaryomyces castellii; conditions: 250 mM sodium acetate buffer, 1 mM CaCl2, pH 4, 37° C.
Experimental: The reaction is triggered by the addition of the enzymatic extract (1 volume). The reaction is stopped by acidification of the medium with 20% trichloroacetic acid (1 volume of reaction medium+1 volume of acid). The amount of phosphate released is determined after various incubation times.

[8] = tested on: Schwanniomyces occidentalis phytase; conditions: Segueilha et al., 1992; cited from earlier work
[9] = target: T1, Debaryomyces castellii CBS 2923 phytase, native (wild type), SEQ ID No. 2; experiment: Kinetic constants (specificity study) of the native phytase; type: biochemical; conditions: native enzyme; calcium phytate versus pNPP
Experimental: as §2, §1, §3

[10] = substrate: O=P(O)(O)O[C@H]1[C@H](OP(=O)(O)O)[C@@H](OP(=O)(O)O)[C@H](OP(=O)(O)O)[C@@H](OP(=O)(O)O)[C@H]1OP(=O)(O)O; experiment: purified protein, by the assay type
[11] = additive 10% in 250 mM acetate buffer pH 4, 1 mM calcium
[12] = effector 5 mM, phytate control = 100
[13] = CaCl2 0 mM (absence of calcium), 250 mM acetate buffer pH 4
[14] = other: native enzyme, 37° C., pH 4 for sodium phytate, pH 5.5 for p-NPP

Molecule: O=C[C@@H](O)[C@H](O)[C@H](O)CO [Arabinose, arabinose]
- activity after 1 h at 20° C. [1, 11]: 90
- activity after 1 h at 66.5° C. [1, 11]: 36

Molecule: O=C(O)CI [iodoacetic acid]
- effect on the phytase activity (in words) [2]: does not cause any inhibition of the activity
- % activity (D. castellii phytase [3]): 100%
- effect on phytase activity (D. castellii phytase [3]): does not cause any inhibition; also recorded: absence of effect

Molecule: O=P(O)(O)O[C@H]1[C@H](OP(=O)(O)O)[C@@H](OP(=O)(O)O)[C@H](OP(=O)(O)O)[C@@H](OP(=O)(O)O)[C@H]1OP(=O)(O)O [Sodium phytate, sodium phytate]
- Vm (D. castellii phytase [4]): 35.8 µmol/min/mg
- affinity (in words) [5]: greater affinity

Molecule: O=P(O)(O)O[C@H]1[C@H](O)[C@@H](O)[C@H](OP(=O)(O)O)[C@@H](O)[C@H]1O [Ins(1,4)P2]
- % activity (D. castellii phytase [6]; substrate 0.1 mM): 65%

Molecule: [Cl][Mn][Cl] [MnCl2]
- inhibition of phytase activity (D. castellii phytase [3]): 72%
- % activity (D. castellii phytase [3]; [12]): 28.8%

Molecule: C=C(OP(=O)(O)O)C(=O)O [Phospho(enol)pyruvate]
- % activity (D. castellii phytase [7]; substrate 4 mM): 130%

Molecule: O=C1CCC(=O)N1Br [N-bromosuccinimide]
- effect on the phytase activity (in words) [2]: completely inhibits the phytase activity
- % activity (D. castellii phytase [3]; effector 0.1 and 1 mM, phytate control = 100): 1%
- effect on phytase activity (D. castellii phytase [3]; inhibitors tested, see Table 3): completely inhibits

Molecule: [Cl-].[Cl-].[Mg+2] [MgCl2]
- % activity (D. castellii phytase [3]; [12]): 68.7%

Molecule: O=P(O)(O)O[C@H]1[C@H](OP(=O)(O)O)[C@@H](OP(=O)(O)O)[C@H](OP(=O)(O)O)[C@@H](OP(=O)(O)O)[C@H]1OP(=O)(O)O [Phytic acid, myo-inositol hexakisphosphate]
- % activity (D. castellii phytase [7]; substrate 9 mM (control)): 100%
- % activity (D. castellii phytase [6]; substrate 9 mM (control)): 91%

Molecule: N[C@@H](Cc1c[nH]c2ccccc12)C(=O)O [tryptophan]
- effect on the phytase activity (in words) [2]: re-establishes the activity

Molecule: [Cl][Cu][Cl] [CuCl2]
- effect on phytase activity [8]: sensitive
- % activity (D. castellii phytase [3]; [12]): 66.6%

Molecule: O=C[C@H](O)[C@@H](O)[C@H](O)[C@H](O)COP(=O)(O)O [Glucose-6-phosphate]
- % activity (D. castellii phytase [7]; substrate 4 mM): 82%

Molecule: [Cl][Hg][Cl] [HgCl2]
- % activity (D. castellii phytase [3]; [12]): 96.2%

Molecule: Nc1ncnc2c1ncn2[C@@H]1O[C@H](COP(=O)(O)OP(=O)(O)O)[C@@H](O)[C@H]1O [Adenosine 5′-diphosphate]
- % activity (D. castellii phytase [7]; substrate 4 mM): 120%

Molecule: [Cl-].[Cl-].[Co+2] [CoCl2]
- % activity (D. castellii phytase [3]): 42.3%

Molecule: O=P(O)(O)OCC(O)CO (stereo in doubt) [L-α-glycerophosphate]
- % activity (D. castellii phytase [7]; substrate 4 mM): 78%

Molecule: [Cl][Cr][Cl] [CrCl2]
- % activity (D. castellii phytase [3]; [12]): 107.6%

Molecule: O=P(O)(O)OC1[C@H](O)[C@H](O)C(O)[C@H](O)[C@H]1O (stereo partly drawn) [Ins(1)P1]
- % activity (D. castellii phytase [6]; substrate 1 mM): 58%

Molecule: O=P(O)(O)OC1[C@@H](O)[C@H](O)C(O)[C@H](O)[C@H]1O (stereo partly drawn) [Ins(2)P1]
- % activity (D. castellii phytase [6]; substrate 1 mM): 84%

Molecule: II [iodine]
- % activity (D. castellii phytase [3]): 25.6%
- inhibition of phytase activity (D. castellii phytase [3]): 75%

Molecule: Nc1ncnc2c1ncn2[C@@H]1O[C@H](COP(=O)(O)O)[C@@H](O)[C@H]1O [Adenosine 5′-monophosphate]
- % activity (D. castellii phytase [7]; substrate 4 mM): 50%

Molecule: [Cl][Fe]([Cl])[Cl] [FeCl3]
- % activity (D. castellii phytase [3]; [12]): 92%

Molecule: OC[C@H]1O[C@@H](O[C@H]2[C@H](O)[C@@H](O)C(O)O[C@@H]2CO)[C@H](O)[C@@H](O)[C@H]1O (stereo partly drawn) [Lactose, lactose]
- activity after 1 h at 20° C. [1, 11]: 95
- activity after 1 h at 66.5° C. [1, 11]: 47

Molecule: O=C(O)CN(CCN(CC(=O)O)CC(=O)O)CC(=O)O [EDTA]
- % activity (D. castellii phytase [3]): 104.5%

Molecule: [Cl-].[Cl-].[Zn+2] [ZnCl2]
- effect on phytase activity [8]: sensitive
- % activity (D. castellii phytase [3]; [12]): 57%

Molecule: Nc1ncnc2c1ncn2[C@@H]1O[C@H](COP(=O)(O)OP(=O)(O)OP(=O)(O)O)[C@@H](O)[C@H]1O [Adenosine 5′-triphosphate]
- % activity (D. castellii phytase [7]; substrate 4 mM): 133%

Molecule: O=C(O)C(O)COP(=O)(O)O (stereo not drawn) [D(−)3-phosphoglyceric acid]
- % activity (D. castellii phytase [7]; substrate 4 mM): 95%

Molecule: O=C(CO)[C@@H](O)[C@H](O)[C@H](O)COP(=O)(O)O [Fructose-6-phosphate]
- % activity (D. castellii phytase [7]; substrate 4 mM): 35%

Molecule: OC[C@H]1O[C@H](O[C@H]2O[C@H](CO)[C@@H](O)[C@H](O)[C@H]2O)[C@H](O)[C@@H](O)[C@@H]1O [Trehalose, trehalose]
- activity after 1 h at 20° C. [1, 11]: 94
- activity after 1 h at 66.5° C. [1, 11]: 56

Molecule: OCCS [2-mercaptoethanol]
- % activity ([2]; effector 3 mM, phytate control 9 mM = 100): 107%
- effect on phytase activity (D. castellii phytase [3]; inhibitors tested, see Table 3): absence of effect

Molecule: OCC(O)CO [Glycerol, glycerol]
- activity after 1 h at 20° C. [1, 11]: 96
- activity after 1 h at 66.5° C. [1, 11]: 56

Molecule: O=P(O)(O)O[C@H]1[C@H](OP(=O)(O)O)[C@@H](OP(=O)(O)O)[C@H](OP(=O)(O)O)[C@@H](OP(=O)(O)O)[C@H]1OP(=O)(O)O [calcium phytate]
- affinity of the phytase relative to p-nitrophenyl phosphate (pNPP) [9]: 4 times

Molecule: [Ca+2].[Cl-].[Cl-] [CaCl2]
- % activity (D. castellii phytase [3]; [12]): 90%
- activity after 1 h at 20° C. [1, 13]: 100
- activity after 1 h at 66.5° C. [1, 13]: 1

Molecule: O=P(O)(O)O[C@@H]1[C@H](O)[C@H](O)[C@@H](OP(=O)(O)O)[C@H](OP(=O)(O)O)[C@H]1O [Ins(1,4,5)P3]
- % activity (D. castellii phytase [6]; substrate 0.1 mM): 56%

Molecule: OC[C@H]1O[C@@](CO)(O[C@H]2O[C@H](CO)[C@@H](O)[C@H](O)[C@H]2O)[C@@H](O)[C@@H]1O [Sucrose, sucrose]
- activity after 1 h at 20° C. [1, 11]: 97
- activity after 1 h at 66.5° C. [1, 11]: 57

B1: recombinant Debaryomyces castellii CBS 2923 phytase (recPhyt, expressed in Pichia pastoris), SEQ ID No. 2 (Schwanniomyces capriottii) (protein)
chain: MVSVSKLINNGLLLVGQGAYQDLASPQQASVEQYNIIRFLGGAAPYIQNKGFGISTDIPDQCTLEQVQLFSRHGERYPSTGSGKKYKAVYEKLMSYNGTFKGELAFLNDDYEYFVPDSVYLEKETSPKNSDSIYAGTTDAMKHGIAFRTKYGELFDTNDTLPVFTSNSGRVYQTSQYFARGFMGDDFSNDTVKTNIISEDADMGANSLTPRDGCFNYNENANTAIVDEYTTEYLTKALNRFKASNPGLNITEDDVSNLFGYCAYELNVKGASPMCDIFTNEEFIQYSYSVDLDDYYSNSAGNNMTRVIGSTLLNASLELLNHDKNENKIWLSFTHDTDIEIFHSAIGILIPDEDLPVDYTPFPSPYSHVGITPQGARTIIEKYACGNESYVRYVINDAVIPIKKCSSGPGFSCNLNDYNDYVAERVAGTNYVEQCGNNNASAVTFYWDYETTNYTASLINS
- Km ([10]; 37.0 °C): 0.24 mM
- Vmax ([10]; 37.0 °C): 137.8 U/mg

B2: Debaryomyces castellii CBS 2923 phytase, native (wild type), SEQ ID No. 2 (Schwanniomyces capriottii) (protein)
chain: VSVSKLINNGLLLVGQGAYQDLASPQQASVEQYNIIRFLGGAAPYIQNKGFGISTDIPDQCTLEQVQLFSRHGERYPSTGSGKKYKAVYEKLMSYNGTFKGELAFLNDDYEYFVPDSVYLEKETSPKNSDSIYAGTTDAMKHGIAFRTKYGELFDTNDTLPVFTSNSGRVYQTSQYFARGFMGDDFSNDTVKTNIISEDADMGANSLTPRDGCFNYNENANTAIVDEYTTEYLTKALNRFKASNPGLNITEDDVSNLFGYCAYELNVKGASPMCDIFTNEEFIQYSYSVDLDDYYSNSAGNNMTRVIGSTLLNASLELLNHDKNENKIWLSFTHDTDIEIFHSAIGILIPDEDLPVDYTPFPSPYSHVGITPQGARTIIEKYACGNESYVRYVINDAVIPIKKCSSGPGFSCNLNDYNDYVAERVAGTNYVEQCGNNNASAVTFYWDYETTNYTASLINS
- Km [10, 14]: 0.532 mM
- Vmax [10, 14]: 35.8 µmol/min/mg
